Counter-ions that a name gives are not always drawn. Like-named read-outs stand apart in the source and are kept apart here.
Columns and labels:
Type in all cases: biochemical
Rac1b = biological target: T1, Rac1b (Homo sapiens, UniProt P63000); assay: Nucleotide binding assay: BODIPY-GTP binding to Rac1b; conditions: for inhibition at 50 µM: read-out: Rac1b % inhibition of BODIPY-GTP binding
T1 construct: GST (N); made in house; host or cells: E. coli BL21 Codon+RIL
Protocol: (§1) Fluorescence of GTP analog BODIPY-GTP increases when it binds to small G proteins. This property was used to assess ability of compounds to inhibit nucleotide binding to Rac1, Rac1b and Cdc42. 2 μM GST-Rac1 and 6 μg His6-Tiam1-DH/PH were diluted in a buffer containing 20 mM Tris, 50 mM NaCl, and 1 mM MgCl2. This mixture was loaded in a 96-well plate. Fluorescence recording were started (λEx: 485 nm; λEm: 538 nm) using a spectrofluorimeter (Fluoroskan; Thermolab Systems). Assay was initiated by the addition of 2 μM BODIPY-GTP with or without various doses of test compound. Fluorescence values were recorded, and data were processed as follows: background fluorescence (unbound BODIPY-GTP) was retrieved from fluorescence values.
(§2) This assay allows determining whether compounds can inhibit the binding of a fluorescent nucleotide to recombinant small G proteins of interest. The effect of various alkaloid compounds on binding of BODIPY-GTP to Rac1 activated by DH/PH domain of Guanine nucleotide Exchange Factor Tiam1 (Rac1/Tiam1), Rac1b and Cdc42 is described below.

[1] = biological target: T2, Rac1 activated by DH/PH domain of Guanine nucleotide Exchange Factor Tiam1 (Rac1/Tiam1) (Homo sapiens, UniProt P63000); assay: Nucleotide binding assay: BODIPY-GTP binding to Rac1 activated by Tiam1 DH/PH; conditions: read-out: Rac1 % inhibition of BODIPY-GTP binding
T2 construct: made in house; host or cells: E. coli BL21 Codon+RIL
Protocol: as §1, §2

Cdc42 = biological target: T3, Cdc42 (Homo sapiens, UniProt P60953); assay: Nucleotide binding assay: BODIPY-GTP binding to Cdc42; conditions: read-out: Cdc42 % inhibition of BODIPY-GTP binding
T3 construct: GST (N); made in house; host or cells: E. coli BL21 Codon+RIL
T3 sequence (P60953 whole entry, species assumed): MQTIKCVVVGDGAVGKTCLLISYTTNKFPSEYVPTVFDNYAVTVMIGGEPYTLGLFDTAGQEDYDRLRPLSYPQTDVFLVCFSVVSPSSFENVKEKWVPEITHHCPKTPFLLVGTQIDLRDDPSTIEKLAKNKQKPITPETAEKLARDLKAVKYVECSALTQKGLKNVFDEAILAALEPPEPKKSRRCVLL
Protocol: as §1, §2

[2] = final concentration of 50 μM, Rac1/Tiam1

IC50 (Rac1b; dose-response study) [µM] | inhibition at 50 µM (Rac1b; final concentration of 50 μM) [%] | inhibition at 50 µM [1, 2] [%] | inhibition at 50 µM (Cdc42; final concentration of 50 μM) [%] | SMILES | inhibition at 50 µM (Rac1b) [%] | inhibition at 50 µM [1] [%] | inhibition at 50 µM (Cdc42) [%]
13.2 ± 4.3 | 72 ± 4 | 63 ± 4 | 70 ± 3 | Cc1c2cc(O)c(O)cc2cc2c3cc(O)c(O)cc3cc[n+]12 [Compound 15, 8-Methyl-isoquino[3,2-a]isoquinolinylium-2,3,10,11-tetraol chloride] |  |  | 
 |  |  |  | COc1ccc(Cc2nccc3cc(OC)c(OC)cc23)cc1OC [Compound 9, 1-(3,4-dimethoxybenzyl)-6,7-dimethoxyisoquinoline hydrochloride, reference compound] | 5 ± 2 | 1 ± 2 | 2 ± 2
 | 31 ± 4 | 23 ± 3 | 9 ± 2 | COc1ccc2c(c1OC)C(Cc1ccccc1)N1CCc3cc4c(cc3C1C2)OCO4 (racemic) [Compound 12, (±)-8-Benzyl-9,10-dimethoxy-5,8,13,13a-tetrahydro-6H-[1,3]dioxolo[4,5-g]isoquino[3,2-a]isoquinoline hydrochloride] |  |  | 
 | -6 ± 10 | 4 ± 4 | 8 ± 3 | CCc1cc2c(cc1C1Cc3ccc(OC)c(OC)c3CN1C)OCO2 (racemic) [Compound 20, (±)-3-(6-Ethylbenzo[d][1,3]dioxol-5-yl)-7,8-dimethoxy-2-methyl-1,2,3,4-tetrahydroisoquinolinylium chloride] |  |  | 
 | 17 ± 3 | 18 ± 3 | 11 ± 2 | COc1cc2cc(-c3ccc(Cl)cc3)nc(C)c2cc1OC [Compound 42, 3-(4-Chlorophenyl)-6,7-dimethoxy-1-methylisoquinolinylium chloride] |  |  | 
 | 18 ± 2 | 12 ± 2 | 14 ± 3 | COc1cc2cc(-c3ccc4c(c3)OCO4)[n+](C)c(C)c2cc1OC [Compound 22, 3-(Benzo[d][1,3]dioxol-5-yl)-6,7-dimethoxy-1,2-dimethylisoquinolinium chloride] |  |  | 
 |  |  |  | COc1ccc2c(c1OC)CN1CCc3cc4c(cc3C1C2)OCO4 (racemic) [Compound 3, (±)-Canadine hydrochloride] | -7 ± 4 | 1 ± 3 | 
 |  |  |  | COc1cc2cc3c4cc(OC)c(OC)cc4cc[n+]3c(C)c2cc1OC [Compound 8, 8-methyl-2,3,10,11-tetramethoxydibenzo[a,g]quinolizinium chloride, hydrate, reference compound] | 44 ± 4 | 36 ± 4 | 21 ± 2
 | 10 ± 3 | -1 ± 2 | 10 ± 1 | COc1cc2cc(-c3cccc(NC(C)=O)c3)nc(C)c2cc1OC [Compound 31, N-(3-(6,7-Dimethoxy-1-methylisoquinolin-3-yl)phenyl)acetamide hydrochloride] |  |  | 
 | 0 | 1 ± 3 | 3 ± 7 | COc1cc2cc(-c3ccccc3NC(C)=O)nc(C)c2cc1OC [Compound 38, N-(2-(6,7-Dimethoxy-1-methylisoquinolin-3-yl)phenyl)acetamide] |  |  | 
 | 6 ± 2 | 6 ± 4 | 11 ± 2 | COc1ccc(-c2cc3cc(OC)c(OC)cc3c(C)n2)cn1 [Compound 35, 6,7-Dimethoxy-3-(6-methoxypyridin-3-yl)-1-methylisoquinoline dimethanesulfonate] |  |  | 
 | 17 ± 2 | 19 ± 1 | 15 ± 2 | COc1cc2cc(-c3ccc(C)cc3)nc(C)c2cc1OC [Compound 43, 6,7-Dimethoxy-1-methyl-3-p-tolylisoquinolinylium chloride] |  |  | 
 | 12 ± 3 | 10 ± 3 | -4 ± 13 | COc1cc2cc(-c3cccnc3)nc(C)c2cc1OC [Compound 36, 6,7-Dimethoxy-1-methyl-3-(pyridin-3-yl)isoquinoline dihydrochloride] |  |  | 
 | 4 ± 3 | 1 ± 2 | -8 ± 10 | COc1cc2c(cc1OC)CN(Cc1cccc(O)c1O)CC2 [Compound 18, 2-(2,3-Dihydroxybenzyl)-6,7-dimethoxy-1,2,3,4-tetrahydroisoquinolinium chloride] |  |  | 
 | 27 ± 2 | 18 ± 2 | 17 | COc1ccc2c(c1OC)C(c1ccccc1)N1CCc3cc4c(cc3C1=C2)OCO4 (stereo not shown) [Compound 10, 9,10-dimethoxy-8-phenyl-5,8-dihydro-2H-6H-[1,3]dioxolo[4,5-g]isoquino[3,2-a]isoquinoline] |  |  | 
 | 3 ± 3 | -2 ± 3 | 3 ± 5 | CNC(=O)c1ccc(-c2cc3cc(OC)c(OC)cc3c(C)n2)cc1 [Compound 34, 4-(6,7-Dimethoxy-1-methylisoquinolin-3-yl)-N-methylbenzamide] |  |  | 
 | 10 ± 4 | 4 ± 5 | 2 ± 1 | COc1cc2cc(-c3ccc(C(=O)OC(C)C)cc3)nc(C)c2cc1OC [Compound 32, Isopropyl 4-(6,7-dimethoxy-1-methylisoquinolin-3-yl)benzoate hydrochloride] |  |  | 
 | 6 ± 3 | 0 | -1 ± 1 | COc1cc2c(cc1OC)CN(Cc1cccc(OC)c1OC)CC2 [Compound 7, 2-(2,3-Dimethoxybenzyl)-6,7-dimethoxy-1,2,3,4-tetrahydroisoquinoline hydrochloride] |  |  | 
 |  |  |  | COc1ccc2c(c1OC)CN1CCc3cc(O)c(O)cc3C1C2 (racemic) [Compound 17, (±)-9,10-Dimethoxy-5,8,13,13a-tetrahydro-6H-isoquino[3,2-a]isoquinoline-2,3-diol hydrochloride] | -7 ± 4 | 5 ± 3 | -13 ± 12
 | -2 ± 3 | -1 ± 2 | 1 ± 1 | COc1ccc2c(c1OC)C(Cc1ccccc1)N1CCc3cc4c(cc3C1=C2)OCO4 (stereo not shown) [Compound 11, 8-benzyl-9,10-dimethoxy-5,8-dihydro-2H-6H-[1,3]dioxolo[4,5-g]isoquino[3,2-a]isoquinoline] |  |  | 
 | 10 ± 5 | 3 ± 5 | 10 ± 6 | COc1cc2cc(-c3ccccc3)[n+](C)cc2cc1OC [Compound 50, 6,7-Dimethoxy-2-methyl-3-phenylisoquinolinium chloride] |  |  | 
 | 29 ± 3 | 20 ± 3 | 7 ± 1 | COc1cc2cc(-c3cccc(C(C)=O)c3)[n+](C)c(C)c2cc1OC [Compound 25, 3-(3-Acetylphenyl)-6,7-dimethoxy-1,2-dimethylisoquinolinium chloride] |  |  | 
 | 14 ± 2 | 10 ± 1 | 1 ± 13 | COc1cc2cc(-c3ccccc3N)nc(C)c2cc1OC [Compound 37, 2-(6,7-Dimethoxy-1-methylisoquinolin-3-yl)aniline dihydrochloride] |  |  | 
 | -2 ± 2 | -5 ± 2 | 2 ± 4 | COc1cc2cc(-c3cccc(N(S(C)(=O)=O)S(C)(=O)=O)c3)nc(C)c2cc1OC [Compound 29, N-(3-(6,7-Dimethoxy-1-methylisoquinolin-3-yl)phenyl)-N-(methylsulfonyl)methanesulfonamide hydrochloride] |  |  | 
 | 2 ± 4 | 1 ± 5 | 2 ± 6 | COc1cc2cnc(-c3ccccc3)cc2cc1OC [Compound 49, 6,7-Dimethoxy-3-phenylisoquinolinium chloride] |  |  | 
 | 17 ± 1 | 6 ± 2 | 5 ± 2 | COc1cc2cc(-c3ccc(O)c(O)c3)[n+](C)c(C)c2cc1OC [Compound 27, 3-(3,4-Dihydroxyphenyl)-6,7-dimethoxy-1,2-dimethylisoquinolinium chloride] |  |  | 
 | 9 ± 3 | 8 ± 3 | 2 | COc1cc2cc(-c3ccccc3NC(=O)N(C)C)nc(C)c2cc1OC [Compound 46, 3-(2-(6,7-Dimethoxy-1-methylisoquinolin-3-yl)phenyl)-1,1-dimethylurea hydrochloride] |  |  | 
 |  |  | 11 ± 2 | COc1cc2c(cc1OC)-c1cc3ccc(OC)c(OC)c3c[n+]1CC2 [Compound 2, palmatine chloride, hydrate, reference compound] | 19 ± 3 | 15 ± 2 | 
 | 8 ± 3 | 10 ± 3 | 10 ± 1 | COc1cc2cc(-c3ccccc3)nc(C)c2cc1OC [Compound 44, 6,7-Dimethoxy-1-methyl-3-phenylisoquinolinylium chloride] |  |  | 
 |  |  | 100 | Oc1cc2c(cc1O)-c1cc3ccc(O)c(O)c3c[n+]1CC2 [Compound 6, 5,6-dihydro-isoquino[3,2-a]isoquinolinylium-2,3,9,10-tetraol chloride] |  |  | 

Source: US20100120810A1, “COMPOUNDS AND METHODS FOR MODULATING RHO GTPASES” (priority 2007, published 2010)
